Compound `O=C1c2cc(OCc3ccc4ccccc4n3)ccc2OCC1Oc1cccnc1` (configuration not stated) has a melting point of 174 to 175 °C. For `CCc1cc(=O)c2cc(C(C)CO)ccc2o1` (configuration not stated), the melting point was 59.5 to 60.5 °C. For `CN(c1ccccc1)N1C(=O)C(Cl)=C(c2ccc(Cl)cc2)C1=O`, the melting point was 155 to 157 °C. With `CCCCCOCCOc1ccc(-c2ccc3c(c2)C=C(C(=O)Nc2ccc(CN(C)C4CCOCC4)cc2)CCS3(=O)=O)cc1` the melting point was 188 to 189 °C. Work on `CC1(c2ccc(OCc3ccccc3)c(C3CO3)c2)OCCO1` (configuration not stated) yielded a melting point of 121 to 123 °C. `O=C(c1cc2ccc(Br)cc2o1)c1cc2ccc(Br)cc2o1` gave a melting point of 176 to 177 °C. Work on `COC(=O)c1cccc(-c2cccc(Oc3cccc(Cl)c3Cl)n2)c1` yielded a melting point of 105 to 106 °C. In the case of `ClCc1cc2ccccc2c(-c2ccccc2)c1CCl`, the melting point is reported as 93 °C. Work on `CCc1c(-c2ccccc2)n(-c2ccccc2Cl)c(-c2ccccc2)cc1=O` yielded a melting point of 165 to 166 °C. Work on `COC(=O)c1cc(/C=C/C(=O)O)ccc1Cl` yielded a melting point of 194 °C. `COC(=O)C(=O)c1c(Cl)cc(OCCOc2ccc3ccccc3c2)cc1Cl` gave a melting point of 142 to 144 °C. `CC(Br)C(=O)NC1=NN(c2cccc(C(F)(F)F)c2)CC1` (configuration not stated) showed a melting point of 54 to 56 °C. `Cc1cc(-c2cccnc2)cc2ccc(=O)[nH]c12` showed a melting point of 236 °C. `NS(=O)(=O)c1ccc(-c2cccc(-c3nc(-c4ccc(C(F)(F)F)cc4)cc(C(F)F)n3)c2)s1` gave a melting point of 240 °C. With `CC(=O)NCCC1=CCc2ccc3nc(C)oc3c21` the melting point was 154 to 156 °C. With `CCc1cc(Br)cc2nc(C(=O)OC)c(C(=O)OC)c(O)c12` the melting point was 115 to 117 °C. Work on `CC(C)(C)OC(=O)N(CC=Cc1ccccc1)S(N)(=O)=O` yielded a melting point of 118 °C. `Cc1nc(-c2c(C)c(C#N)c3nc(C4CC4)oc3c2N2CC[C@H](N(C)C)C2)cs1` gave a melting point of 167 to 168 °C. With `O=C(Oc1cccc2c(-c3ccccc3)c3cccc(OC(=O)c4ccccc4)c3c(OC(=O)c3ccccc3)c12)c1ccccc1` the melting point was 255 °C. With `CNC(=O)CCCC1CCN(Cc2cnc3c(C)c(NC(=O)c4ccc(-c5ccc(F)cc5)cc4)ccc3c2)CC1` the melting point was 210 to 212 °C. Compound `CON=Cc1cc(N2C(=O)C3=C(CCCC3)C2=O)c(Cl)cc1Cl` has a melting point of 122 to 124 °C. Compound `Cc1ccc(S(=O)(=O)N2N=C(c3ccccc3)CC3CC=CC32)cc1` (configuration not stated) has a melting point of 163 to 165 °C. `CCOc1ccc(S(=O)(=O)N(Cc2ccc(C#N)cc2)[C@@H](CC)c2ccccc2)cc1` showed a melting point of 97 to 98 °C. For `Cc1ccc(-c2c(C=O)n(C)c(=O)c3ncccc23)cc1`, the melting point was 282 to 284 °C. Work on `C#CC1(CO)C=CC(n2cc(C)c(=O)[nH]c2=O)O1` (configuration not stated) yielded a melting point of 207 to 209 °C. In the case of `Cc1cccc2sc3ccccc3c(=O)c12`, the melting point is reported as 107 to 132 °C. Compound `Cc1c(C(N)=O)sc2cncc(Oc3ccc(Br)cc3)c12` has a melting point of 78 to 80 °C. For `CCS(=O)(=O)NC1CCCOc2c(C)cc(Cl)cc21` (configuration not stated), the melting point was 144 to 145 °C. `CSc1nc(-c2ccc(N)cc2)c[nH]1` gave a melting point of 85 to 86 °C. For `CCC(CC)n1cnc2c1c(=O)n(C)c(=O)n2-c1ccc(Cl)cc1Cl`, the melting point was 158 to 159 °C. In the case of `O=S1(=O)NC[C@@H](O)c2cc(Cl)sc21`, the melting point is reported as 126 to 127 °C. `OCc1conc1-c1ccc(Cl)c(Cl)c1` showed a melting point of 103 to 104 °C. For `COc1ccc2c(c1)c(Cc1cc(=O)n(-c3ccc(C(F)(F)F)cc3)[nH]1)c(C)n2C(=O)c1ccc(Cl)cc1`, the melting point was 180 to 182 °C. `C=CCOC(=O)c1cnc2c(cnn2CCC(C)C)c1N` showed a melting point of 124 to 126 °C. In the case of `C=CC(=O)c1cn(C)c2ccccc12`, the melting point is reported as 106 to 107 °C. `O=C1Nc2ccccc2Nc2ccsc21` showed a melting point of 226 °C. Work on `Clc1ccc(C(OCCN2CCOCC2)(c2ccc(Cl)cc2)c2ccc(Cl)cc2)cc1` yielded a melting point of 151 to 153 °C. `O=C1C(Br)=C(Br)C(=O)c2ncccc21` showed a melting point of 243 to 245 °C. In the case of `CSc1nnc2c(=O)[nH]c(-c3ccccc3OCC(C)C)nc2n1`, the melting point is reported as 237 to 238 °C. `O=C(O)CCc1cnoc1-c1ccc(F)cc1F` gave a melting point of 125 to 126 °C. Compound `CCOC(=O)CCNC(=O)NC1CCN(c2ccc(C(=N)NOC(=O)OCC(Cl)(Cl)Cl)cc2)C1=O` (configuration not stated) has a melting point of 196 to 198 °C. With `CSc1nc2ccc(Cl)cc2c(-c2ccccc2)c1N` the melting point was 115 to 117 °C. Work on `CCC(O)c1cc(C(=O)c2ccccc2)no1` (configuration not stated) yielded a melting point of 70 to 71 °C. `CC(=O)Nc1ccc2c(c1)C(CN1CCC(c3ccc(F)cc3)CC1)CC2` (configuration not stated) showed a melting point of 145 to 146 °C. Compound `CC(C)(C)OC(=O)Cn1c(=O)n(S(=O)(=O)c2ccc(Cl)cc2)c(=O)c2ccc(Cl)cc21` has a melting point of 188 to 190 °C. With `Oc1ccc2c(c1)OCC(c1cccc(F)c1)C2c1ccc(OCCN2CCCC2)cc1` (configuration not stated) the melting point was 146 to 150 °C. `CC(C)=C1C(=O)N(c2cccc3c(N)cccc23)C(=O)/C1=C(\C)c1cc(-c2ccccc2)sc1C` gave a melting point of 155 to 158 °C. In the case of `COc1ccc2[nH]c(C)c(C(C)=O)c2c1`, the melting point is reported as 156 to 158 °C. For `CCOC(=O)NN=C(c1ccc(Cl)cc1)c1ccc(CS(C)=O)cc1` (configuration not stated), the melting point was 65 to 70 °C. `C[C@@]12CCCN1[C@@H](C(Cl)(Cl)Cl)OC2=O` showed a melting point of 55 to 57 °C. With `CC(C)(C(=O)O)c1ccc(CCl)cc1` the melting point was 121 to 122 °C. For `NC(=O)c1cc(=O)c2c(o1)c1ccccc1n2-c1ccccc1`, the melting point was 263 to 265 °C.

From a melting point compilation (Tetko et al.; mined from patent text by program, amines drawn as free bases though some values may be those of a salt)
